{"source": "patent US20070054887A1", "about": "“Methods for treating bladder dysfunction” (BioXell S.p.A, priority 2003, published 2007)", "key": {"desmin": {"system": "desmin", "assay": "desmin gene and protein expression in serum-starved hBC", "type": "cell-based, human", "details": "10 nM", "protocol": "To detect desmin both at gene or protein level hBC cells were seeded in their growth medium onto 10 mm diameter culture dishes or onto sterile glass slides (about 10^4 cells/ml), for mRNA or immunocytochemical analysis, respectively. hBC cells at about 30% confluency, after overnight starvation in serum-free medium were incubated in phenol red- and serum-free medium containing 0.1% BSA with or without Compound A (10^−8 M) for 2, 4, 8 and 12 days, and the medium was changed every 2 days. Cells were harvested for mRNA or protein analysis by Taqman or Western blot analysis, respectively, and the slides were processed for specific protein immunocytochemical detection Quantitative analysis using real-time RT-PCR of desmin mRNA expression in serum-starved hBC treated with Compound A (10 nM, grey columns) was examined at different time points (2-12 days). Results are derived from five different experiments from three distinct hBC preparations and are expressed as fold increase compared to time zero. *P≦0.01 or °P=0.04 vs. control, open columns and are shown in FIG. 8.\nWestern blot detection of desmin in hBC was conducted as follows: thirty μg of proteins were separated by 10% SDS-PAGE, transferred onto nitrocellulose membrane, and probed with anti-desmin antibody (1:1000). A band of about 58 kDa was detected in each sample of hBC. […]"}, "BOO rats": {"system": "BOO rats", "assay": "bladder outlet obstruction (BOO) rat model: cystometry and bladder weight", "type": "in vivo, Sprague-Dawley rats", "details": "150 ug/kg/daily over 2 weeks", "protocol": "Female Sprague-Dawley rats, weighing 200-250 g\nGroup A: BOO rats, treated with the vitamin D analogue over 2 weeks, beginning at day 1 after creation of the obstruction (n=12)\nGroup B: BOO rats, treated with vehicle over 2 weeks, beginning at day 1 after creation of the obstruction (n=12)\nGroup C: Sham operated rats, treated with the vitamin D analogue over 2 weeks, beginning at day 1 after surgery (n=12)\na) Cystometry (˜18 hours after last administration of the drug/vehicle, 12 hours after removal of the obstructing ligature) under conscious conditions.\nThe bladder and urethrovesical junction were exposed through a lower abdominal midline incision. A 0.9 mm metal rod was placed alongside the proximal urethra and a 3-0 silk ligature was tied tightly around the urethra and the rod, which was consequently removed. Sham surgery was performed accordingly, without placing the ligature. After 13 days the ligature was removed and a catheter was inserted into the bladder dome and tunneled subcutaneously.\nThe following morning after insertion of the catheter, the cystometric investigation was performed without any anesthesia or restraint in a metabolic cage. The amount of voided urine was measured by means of a fluid collector, connected to a force displacement transducer. The bladder was continuously filled with saline at room temperature. The catheter was also connected to a pressure transducer. After a stabilization period of 30-60 minutes, when reproducible voiding patterns are achieved, the following parameters were recorded over a period of 30 min: Basal bladder pressure, micturition pressure, threshold pressure, micturition interval and volume, and non-voiding contractions. The amount of residual urine was investigated manually 3 times, at the end of the cystometry. Bladder capacity was calculated based on the measured values.\nThe validated bladder outlet obstruction rat model described above was used to test the ability of vitamin D3 analogues to control and treat bladder dysfunction. The objective was to evaluate whether a vitamin D3 analogue (1-alpha-fluoro-25-hydroxy-16,23e-diene-26,27-bishomo-20-epi-cholecalciferol-Compound “A”) at the dose of 150 ug/kg/daily can prevent bladder hypertrophy and bladder dysfunction such as bladder overactivity.\nIn this model a ligature was surgically placed around the outlet of the catheterized bladder, so that when the catheter was removed, the bladder experienced increased urethral resistance. The rats underwent continuous cystometry to evaluate bladder function. In addition the contractile properties of isolated bladder preparation in response to nerve stimulation and exogenous stimuli in vitro were investigated under electrical field stimulation (EFS)."}}}
{"compound": "C=C1/C(=C\\C=C2/CCC[C@]3(C)C([C@@H](C)C/C=C/C(O)(CC)CC)=CC[C@@H]23)C[C@@H](O)C[C@@H]1F", "note": "[Compound A, 1-alpha-fluoro-25-hydroxy-16,23E-diene-26,27-bishomo-20-epi-cholecalciferol]", "values": [{"measurement": "desmin protein expression (Western blot)", "setting": "desmin; at any time point tested (2-12 days), FIG. 9", "result": "decreased"}, {"measurement": "serum starvation-induced progressive increase in desmin expression", "setting": "desmin; mRNA and protein, FIGS. 8-11", "result": "almost completely counteracted"}, {"measurement": "spontaneous non-voiding contraction amplitude", "setting": "BOO rats; versus vehicle", "result": "significant differences versus vehicle"}, {"measurement": "spontaneous non-voiding contraction frequency", "setting": "BOO rats; versus vehicle", "result": "significant differences versus vehicle"}, {"measurement": "micturition pressure", "setting": "BOO rats; versus vehicle, FIG. 19", "result": "significant differences versus vehicle"}, {"measurement": "bladder weight", "setting": "BOO rats; FIG. 16", "result": "slight decrease"}, {"measurement": "residual urine", "setting": "BOO rats; FIG. 20", "result": "absent"}]}
